In the RepoRT retention time repository:

Assay: Waters ACQUITY UPLC HSS T3, 0.4 mL/min; A: water + 0.1% formic acid; B: acetonitrile + 0.1% formic acid; gradient (min/%B) 0/5 1.5/5 12/95 14/95 14.01/100 17/100
Conditions: stereoisomer not certain

SMILES	LC retention time [min]
CCCCCC=CCC(O)CC=CC=CC(SCC(N)C(=O)O)C(O)CCCC(=O)O (centres undefined)	9.02
CC(C)(OC1OC(CO)C(O)C(O)C1O)C1CCC(O)(CO)CC1 (centres undefined)	5.08
CCCCCC=CCC=CCC=CCCCCC(=O)OCC(COP(=O)(O)OCC(O)CO)OC(=O)CCCCCCCCCCCCCCC (centres undefined)	13.9
CC(C)=CCCC(C)CCOC1OC(CO)C(O)C(O)C1OC1OC(CO)C(O)C(O)C1O (centres undefined)	4.52
Nc1ncnc2c1ncn2C1OC(CO)C(OP(=O)(O)O)C1O (centres undefined)	0.934
CC(C)=CCCC(C)(O)C1CCC2(C)C1C(O)CC1C3(C)CCC(OC4OC(COC5OCC(O)C(O)C5O)C(O)C(O)C4O)C(C)(C)C3CCC12C (centres undefined)	10.8
CCCCCC(O)C=CC1C(O)CC(O)C1CC(=O)CCC(=O)O (centres undefined)	8.51
CC(C)OC(=O)C(C(=O)OC(C)C)=C1SCCS1	1.14
CCC(C)C(N)C(=O)NC(CCC(=O)O)C(=O)O (centres undefined)	1.05
Cc1cc(O)c2c(c1O)C(=O)C1=C(C2=O)C(=O)C2C(O)C1C1C(O)CC(=O)C3=C(O)c4c(O)cc(C)c(O)c4C(=O)C321 (centres undefined)	1.11
C[N+](C)(C)CCOP(=O)([O-])O	0.761
CCCC(=O)OCCC(S)CCC (centres undefined)	0.838
CCCCCC(=O)CCC1C=CC(=O)C1CC=CCCCC(=O)O (centres undefined)	4.99
CC(C)CC(NC(=O)OC(C)(C)C)C(=O)O (centres undefined)	3
CN(C)C	0.706
CCCCCC(C)S (centres undefined)	1.3
CC1=C2C(CC3(C)OC3CCC3(C)OC3C2O)OC1=O (centres undefined)	6.31
CC1(O)CCC(C(C)(C)OC2OC(CO)C(O)C(O)C2O)CC1O (centres undefined)	5.08
CCCCCC(O)C=CC=CCC=CCC=CCCCC(=O)NCCS(=O)(=O)O (centres undefined)	4.09
CC(O)C1CCC2C3CCC4=CC(=O)CCC4(C)C3CCC12C (centres undefined)	11.8

SMILES	LC retention time [min]
COc1cc2c(cc1OC)CN(C)CC2	4.98
COC(=O)C12CCC(C)(C)CC1C1=CCC3C4(C)CCC(OC(=O)C=Cc5ccc(OC)cc5)C(C)(C)C4CCC3(C)C1(C)CC2 (centres undefined)	13.1
CC(=O)c1cnccn1	1.06
Nc1cncn1C1OC(COP(=O)(O)O)C(O)C1O (centres undefined)	0.711
CCC(C(=O)CC(C)C1=C(O)C(=O)C2C3CCC4CC(OC5OC(C(=O)O)C(O)C(O)C5O)CCC4(C)C3CCC12C)C(C)C (centres undefined)	11
CC(C=CCC1C(=O)CCC1CC(=O)O)OC1OC(CO)C(O)C(O)C1O (centres undefined)	0.755
CC1CCC2(C(=O)O)CCC3(C)C(=CCC4C5(C)CCC(OC(=O)c6ccccc6)C(C)(C)C5C(=O)CC43C)C2C1C (centres undefined)	11
CCC=CCC=CCC(O)C=CC=CC=CC(O)CCCC(=O)O (centres undefined)	4.99
CC(CP(CCCCCCS(=O)(=O)[O-])CCCCCCS(=O)(=O)[O-])P(CCCCCCS(=O)(=O)[O-])CCCCCCS(=O)(=O)[O-] (centres undefined)	1.02
CNC(C)(C)C(=O)O	1.02
COC1CCC(=O)N1 (centres undefined)	0.851
CC1CCC(C(C)(O)CO)CC1OC1OC(CO)C(O)C(O)C1O (centres undefined)	5.08
O=C(O)CCNCC(=O)O	0.786
O=c1[nH]cnc2nc[nH]c12	1.1
Nc1ccnc(=O)[nH]1	1.02
CCC(C)C(=O)OC1CC(C)(O)C=C2C=CC(C)C(CCC3CC(O)CC(=O)O3)C21 (centres undefined)	5.18
CN1CC(c2ccc(O)cc2)OC1(C)C (centres undefined)	4.98
CC12CCC(=O)C=C1CCC1C2C(O)CC2(C)C(C(O)CC(=O)O)CCC12 (centres undefined)	5.01
O=C(OCC1OC(Oc2ccc(C=Cc3cc(O)cc(O)c3)cc2O)C(O)C(O)C1O)c1cc(O)c(O)c(O)c1 (centres undefined)	1.11

Further lines, results first:

LC retention time [min]	SMILES
4.98	CNc1ccccc1C(=O)OCC(C)C
11	CC1CCC2(C(=O)O)CCC3(C)C(=CCC4C5(C)CC(O)C(OC(=O)C=Cc6ccc(O)cc6)C(C)(C)C5CCC43C)C2C1C (centres undefined)
1.06	NC(=O)c1cccnc1
0.755	O=C(O)CC1CCC(=O)C1CC=CCCOC1OC(CO)C(O)C(O)C1O (centres undefined)
8.55	O=C(O)CCCC(O)C=CC=CCCC(O)CC=CCCCCC(O)(O)O (centres undefined)
0.75	CCCCC(S)CCOC (centres undefined)
4.04	CCC(C)C(=O)OC(CC(=O)[O-])C[N+](C)(C)C (centres undefined)
0.829	CC(NC(=O)C(N)CC(=O)O)NC(=O)N(C)C(C)(C)C (centres undefined)
3.91	CCCCCC(=O)OCCC(CCC)SC (centres undefined)
5.68	Nc1nc2c(c(=O)[nH]1)NC(C(O)C(O)COP(=O)(O)OP(=O)(O)OP(=O)(O)O)C(O)N2O (centres undefined)
0.794	CN1CC(=O)NC1=N
0.706	CC(C)N
5.08	CC1CCC(C(C)(O)COC2OC(CO)C(O)C(O)C2O)CC1O (centres undefined)
9.82	CC(C)=CCCC(C)(O)C1CCC2(C)C1C(O)CC1C3(C)CCC(OC4OC(CO)C(O)C(O)C4OC4OC(CO)C(O)C(O)C4O)C(C)(C)C3CCC12C (centres undefined)
4.09	CCCCCC=CCC(O)C=CC=CCC=CCCCC(=O)NCCS(=O)(=O)O (centres undefined)
0.777	NCCS(=O)(=O)O
11	C=C(C)C1CCC2(C(=O)O)CCC3(C)C(CCC4C5(C)CC(O)C(OC(=O)C=Cc6ccc(O)cc6)C(C)(C)C5CCC43C)C12 (centres undefined)
5.43	CCCCC=CCCCCCCCC(=O)OCC(COP(=O)(O)OCC(N)C(=O)O)OC(=O)CCCCCCCCCCC (centres undefined)
10.5	CCCCCCCCCCCCCCCCCCOC(=O)CC(O)(CC(=O)O)C(=O)O (centres undefined)
6.31	C=C1C(=O)OC2C1CCC(=O)CC1(C)CCC(O)OC21 (centres undefined)

LC retention time [min]	SMILES
0.828	NCC1CCC(C(=O)O)CC1 (centres undefined)
4.37	COc1cc2c(c(OC)c1CC=C(C)C)CC(c1ccc(O)c3c1OC(C)(C)C=C3)CO2 (centres undefined)
1.3	O=S(=O)([O-])CCCCCCCP(CCCCCCCS(=O)(=O)[O-])CN(CP(CCCCCCCS(=O)(=O)[O-])CCCCCCCS(=O)(=O)[O-])c1ccccc1
3.99	CC1(C)OC2(C)CC(O)C1CC2OC1OC(CO)C(O)C(O)C1O (centres undefined)
1.15	O=C(Oc1cc(O)cc(O)c1C(=O)O)c1ccc(O)c(O)c1
0.755	COc1cc(CCCO)ccc1OC(CO)COC1OCC(O)C(O)C1O (centres undefined)
0.838	CCCCCCOC(=O)CC(C)S (centres undefined)
1.02	CCO[SiH](CCCSCCC[SiH](OCC)OCC)OCC
1.03	Nc1nc2c(ncn2CCC(CO)CO)c(=O)[nH]1
3	CC(C)C(=O)OC(CC(=O)[O-])C[N+](C)(C)C (centres undefined)
5.56	CC(C)C(CCC(C)C1CC(O)C2C1(C)CCC1C3(C)CCC(OC4OCC(O)C(O)C4O)CC3C(O)CC12O)OC1OCC(O)C(O)C1O (centres undefined)
13	CCCCCCC=CCCCCCCCC(=O)OCC(COP(=O)(O)OCC(O)CO)OC(=O)CCCCCCCC=CCCCCCC (centres undefined)
9.9	CC(=CC(O)C1OC1(C)C)C1CCC2(C)C1C(O)CC1C3(C)CCC(O)C(C)(C)C3C(OC3OC(CO)C(O)C(O)C3O)CC12C (centres undefined)
9.13	CCCCCCCCCCCCCCCCCC(=O)NC(Cc1ccc(O)cc1)C(=O)O (centres undefined)
1.02	CC(C)C(N)C(=O)O (centres undefined)
5.01	CCC=CCC(O)C=CC=CC=CC=CC(O)C(O)CC=CCCC(=O)O (centres undefined)
9.93	COC1(CCC(C)COC2OC(CO)C(O)C(O)C2O)OC2CC3C4CCC5CC(=O)CCC5(C)C4CCC3(C)C2C1C (centres undefined)
5.64	CCCCCCCCCCCCCCCCCC(=O)OC(CO)COP(=O)(O)OCC(O)CO (centres undefined)
4.81	C=CC(C)(CCC=C(C)CCC=C(C)CCC(OC1OC(CO)C(O)C(O)C1O)C(C)(C)O)OC1OC(CO)C(O)C(O)C1O (centres undefined)
11	CC1(C)CCC2(C(=O)O)CCC3(C)C(=CCC4C5(C)CC(O)C(OC(=O)C=Cc6ccc(O)cc6)C(C)(C)C5CCC43C)C2C1 (centres undefined)
